Test system: 156681-154-R-J1-PDC complex spheroid viability
Assay: Anticancer human tumor 156681-154-R-J1-PDC patient-derived melanoma cell line growth inhibition [CLK]
Conditions: for IC50: curve of first compound; for viability, T/C: stronger effect = lower value; active = viability on the fitted dose curve at most 10% of control; inactive = the rest
How it was run: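 Patient-derived tumor cells grown as complex spheroids with HUVEC endothelial cells and mesenchymal stem cells, treated with drug combinations. Concentrations descend in half-log steps from near clinical Cmax, or from 10 microM if Cmax unknown.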

[1] = second compound 0.0316 µM, first compound 0.0316 µM
[2] = second compound 0.0316 µM, first compound 0.1 µM
[3] = second compound 0.0316 µM, first compound 0.316 µM
[4] = second compound 0.0316 µM, first compound 1 µM
[5] = second compound 0.0316 µM, first compound 3.16 µM
[6] = second compound 0.0316 µM, first compound 10 µM
[7] = second compound 0.1 µM, first compound 0.0316 µM
[8] = second compound 0.1 µM, first compound 0.1 µM
[9] = second compound 0.1 µM, first compound 0.316 µM
[10] = second compound 0.1 µM, first compound 1 µM
[11] = second compound 0.1 µM, first compound 3.16 µM
[12] = second compound 0.1 µM, first compound 10 µM
[13] = second compound 0.316 µM, first compound 0.0316 µM
[14] = second compound 0.316 µM, first compound 0.1 µM
[15] = second compound 0.316 µM, first compound 0.316 µM
[16] = second compound 0.316 µM, first compound 1 µM
[17] = second compound 0.316 µM, first compound 3.16 µM
[18] = second compound 0.316 µM, first compound 10 µM
[19] = second compound 1 µM, first compound 0.0316 µM
[20] = second compound 1 µM, first compound 0.1 µM
[21] = second compound 1 µM, first compound 0.316 µM
[22] = second compound 1 µM, first compound 1 µM
[23] = second compound 1 µM, first compound 3.16 µM
[24] = second compound 1 µM, first compound 10 µM
[25] = second compound 3.16 µM, first compound 0.0316 µM
[26] = second compound 3.16 µM, first compound 0.1 µM
[27] = second compound 3.16 µM, first compound 0.316 µM
[28] = second compound 3.16 µM, first compound 1 µM
[29] = second compound 3.16 µM, first compound 3.16 µM
[30] = second compound 3.16 µM, first compound 10 µM
[31] = second compound 10 µM, first compound 0.0316 µM
[32] = second compound 10 µM, first compound 0.1 µM
[33] = second compound 10 µM, first compound 0.316 µM
[34] = second compound 10 µM, first compound 1 µM
[35] = second compound 10 µM, first compound 3.16 µM
[36] = second compound 10 µM, first compound 10 µM
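Also: spheroids exposed to the agents for seven days.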
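For viability, T/C in this document: 100% = DMSO vehicle control viability.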

C=CC(=O)Nc1cc(Nc2nccc(-c3cn(C)c4ccccc34)n2)c(OC)cc1N(C)CCN(C)C + CNC(=O)c1ccc(Nc2nc(OC3CCCC3)c3c(-c4ccc5nc(C)oc5c4)c[nH]c3n2)c(OC)c1
2.45 nM: IC50 (second compound 3.16 µM)
inactive: viability, T/C (second compound 0.0316 µM, first compound 0.000949 µM) 82.8% | viability, T/C (second compound 0.0316 µM, first compound 0.003 µM) 97.7% | viability, T/C (second compound 0.0316 µM, first compound 0.00949 µM) 90.6% | viability, T/C (second compound 0.0316 µM, first compound 0.03 µM) 111% | viability, T/C (second compound 0.0316 µM, first compound 0.0949 µM) 109% | viability, T/C (second compound 0.0316 µM, first compound 0.3 µM) 90% | viability, T/C (second compound 0.1 µM, first compound 0.000949 µM) 67.7% | viability, T/C (second compound 0.1 µM, first compound 0.003 µM) 64.1% | viability, T/C (second compound 0.1 µM, first compound 0.00949 µM) 61.8% | viability, T/C (second compound 0.1 µM, first compound 0.03 µM) 68.5% | viability, T/C (second compound 0.1 µM, first compound 0.0949 µM) 64.3% | viability, T/C (second compound 0.1 µM, first compound 0.3 µM) 64.8% | viability, T/C (second compound 0.316 µM, first compound 0.000949 µM) 71.5% | viability, T/C (second compound 0.316 µM, first compound 0.003 µM) 64.8% | viability, T/C (second compound 0.316 µM, first compound 0.00949 µM) 83.1% | viability, T/C (second compound 0.316 µM, first compound 0.03 µM) 62.7% | viability, T/C (second compound 0.316 µM, first compound 0.0949 µM) 63.2% | viability, T/C (second compound 0.316 µM, first compound 0.3 µM) 64% | viability, T/C (second compound 1 µM, first compound 0.000949 µM) 62.1% | viability, T/C (second compound 1 µM, first compound 0.003 µM) 56% | viability, T/C (second compound 1 µM, first compound 0.00949 µM) 53.5% | viability, T/C (second compound 1 µM, first compound 0.03 µM) 48.2% | viability, T/C (second compound 1 µM, first compound 0.0949 µM) 64.8% | viability, T/C (second compound 1 µM, first compound 0.3 µM) 43.6% | viability, T/C (second compound 3.16 µM, first compound 0.000949 µM) 50.1% | viability, T/C (second compound 3.16 µM, first compound 0.003 µM) 57.6% | viability, T/C (second compound 3.16 µM, first compound 0.00949 µM) 35.2% | viability, T/C (second compound 3.16 µM, first compound 0.03 µM) 47.2% | viability, T/C (second compound 3.16 µM, first compound 0.0949 µM) 37.9% | viability, T/C (second compound 3.16 µM, first compound 0.3 µM) 29.1% | viability, T/C (second compound 10 µM, first compound 0.000949 µM) 44.9% | viability, T/C (second compound 10 µM, first compound 0.003 µM) 41.8% | viability, T/C (second compound 10 µM, first compound 0.00949 µM) 31.9% | viability, T/C (second compound 10 µM, first compound 0.03 µM) 43.1% | viability, T/C (second compound 10 µM, first compound 0.0949 µM) 45% | viability, T/C (second compound 10 µM, first compound 0.3 µM) 24.2%
242 nM: IC50 (second compound 1 µM)
< 0.949 nM: IC50 (second compound 10 µM)
> 300 nM: IC50 (second compound 0.0316 µM) | IC50 (second compound 0.1 µM) | IC50 (second compound 0.316 µM)

CC(=O)O[C@H]1C(=O)[C@@]2(C)[C@H]([C@H](OC(=O)c3ccccc3)[C@]3(O)C[C@H](OC(=O)[C@H](O)[C@@H](NC(=O)c4ccccc4)c4ccccc4)C(C)=C1C3(C)C)[C@]1(OC(C)=O)CO[C@@H]1C[C@@H]2O + CNC(=O)c1ccc(Nc2nc(OC3CCCC3)c3c(-c4ccc5nc(C)oc5c4)c[nH]c3n2)c(OC)c1
< 31.6 nM: IC50 (second compound 0.0316 µM) | IC50 (second compound 0.1 µM)
inactive: viability, T/C [1] 16.8% | viability, T/C [2] 19% | viability, T/C [3] 13.9% | viability, T/C [4] 19.6% | viability, T/C [5] 30.7% | viability, T/C [6] 41.1% | viability, T/C [7] 36.3% | viability, T/C [8] 24.6% | viability, T/C [9] 38.9% | viability, T/C [10] 44.2% | viability, T/C [11] 61.3% | viability, T/C [12] 56.1% | viability, T/C [13] 78.4% | viability, T/C [14] 88.8% | viability, T/C [15] 55.4% | viability, T/C [16] 91.9% | viability, T/C [17] 102% | viability, T/C [18] 95.3% | viability, T/C [19] 58.5% | viability, T/C [20] 66.6% | viability, T/C [21] 65.5% | viability, T/C [22] 71.7% | viability, T/C [23] 85% | viability, T/C [24] 76.4% | viability, T/C [25] 63.2% | viability, T/C [26] 60.1% | viability, T/C [27] 56% | viability, T/C [28] 71.4% | viability, T/C [29] 78.6% | viability, T/C [30] 58.4% | viability, T/C [31] 51.6% | viability, T/C [32] 51.3% | viability, T/C [33] 55.2% | viability, T/C [34] 47.1% | viability, T/C [35] 57.5% | viability, T/C [36] 55.2%
> 10000 nM: IC50 (second compound 0.316 µM) | IC50 (second compound 1 µM) | IC50 (second compound 3.16 µM) | IC50 (second compound 10 µM)

Nc1ccccc1NC(=O)c1ccc(CNC(=O)OCc2cccnc2)cc1 + CN1CCN(c2cc(C(=O)Nc3cc4cc(-c5cnn(C)c5)ccc4cn3)ccn2)CC1
505 nM: IC50 (second compound 0.1 µM)
active: viability, T/C [5] 5.05% | viability, T/C [6] 0.29% | viability, T/C [11] 7.52% | viability, T/C [12] 1.57% | viability, T/C [17] 1.03% | viability, T/C [18] 0.71% | viability, T/C [19] 0.22% | viability, T/C [20] 1.38% | viability, T/C [21] 0.48% | viability, T/C [22] 0.97% | viability, T/C [23] 2.99% | viability, T/C [24] 1.95% | viability, T/C [25] 0.06% | viability, T/C [26] 0.81% | viability, T/C [27] 0.11% | viability, T/C [28] 0.92% | viability, T/C [29] 1.15% | viability, T/C [30] 1.84% | viability, T/C [31] 0.03% | viability, T/C [32] 0.96% | viability, T/C [33] 0.58% | viability, T/C [34] 0.15% | viability, T/C [35] 3.86% | viability, T/C [36] 2.47%
563 nM: IC50 (second compound 0.0316 µM)
< 31.6 nM: IC50 (second compound 0.316 µM) | IC50 (second compound 1 µM) | IC50 (second compound 3.16 µM) | IC50 (second compound 10 µM)
inactive: viability, T/C [1] 104% | viability, T/C [2] 86.9% | viability, T/C [3] 69.7% | viability, T/C [4] 33.3% | viability, T/C [7] 95.2% | viability, T/C [8] 89.5% | viability, T/C [9] 65.2% | viability, T/C [10] 27.4% | viability, T/C [13] 23.7% | viability, T/C [14] 20.4% | viability, T/C [15] 19.8% | viability, T/C [16] 14.6%

COc1c(OCCCN2CCOCC2)ccc2c3n(c(=NC(=O)c4cnc(N)nc4)nc12)CCN3 + CNC(=O)c1ccc(Nc2nc(OC3CCCC3)c3c(-c4ccc5nc(C)oc5c4)c[nH]c3n2)c(OC)c1
active: viability, T/C [3] 2.95% | viability, T/C [4] 0.22% | viability, T/C [9] 2.54% | viability, T/C [10] 0.32% | viability, T/C [15] 4.38% | viability, T/C [16] 3.9% | viability, T/C [20] 6.93% | viability, T/C [21] 1.63% | viability, T/C [22] 0.35% | viability, T/C [26] 6.45% | viability, T/C [27] 1.23% | viability, T/C [28] 0.32% | viability, T/C [32] 5.7% | viability, T/C [33] 1.04% | viability, T/C [34] 0.31%
inactive: viability, T/C (second compound 0.0316 µM, first compound 0.00316 µM) 74.4% | viability, T/C (second compound 0.0316 µM, first compound 0.01 µM) 64.8% | viability, T/C [1] 33.8% | viability, T/C [2] 17.3% | viability, T/C (second compound 0.1 µM, first compound 0.00316 µM) 50.5% | viability, T/C (second compound 0.1 µM, first compound 0.01 µM) 56.1% | viability, T/C [7] 33.5% | viability, T/C [8] 18.5% | viability, T/C (second compound 0.316 µM, first compound 0.00316 µM) 61.2% | viability, T/C (second compound 0.316 µM, first compound 0.01 µM) 44.2% | viability, T/C [13] 27.9% | viability, T/C [14] 13.3% | viability, T/C (second compound 1 µM, first compound 0.00316 µM) 50.8% | viability, T/C (second compound 1 µM, first compound 0.01 µM) 37.3% | viability, T/C [19] 18.8% | viability, T/C (second compound 3.16 µM, first compound 0.00316 µM) 47.6% | viability, T/C (second compound 3.16 µM, first compound 0.01 µM) 35.5% | viability, T/C [25] 19.9% | viability, T/C (second compound 10 µM, first compound 0.00316 µM) 49.1% | viability, T/C (second compound 10 µM, first compound 0.01 µM) 30.9% | viability, T/C [31] 10.6%
3.39 nM: IC50 (second compound 1 µM)
17.4 nM: IC50 (second compound 0.0316 µM)
< 3.16 nM: IC50 (second compound 3.16 µM) | IC50 (second compound 10 µM)
7 nM: IC50 (second compound 0.316 µM)
10.2 nM: IC50 (second compound 0.1 µM)

From PubChem BioAssay AID2060627 (Molecular Pharmacology Branch, DTP, NCI, 2025)
